Assay results from ChEMBL document CHEMBL4507291 (2021).

What was measured:
[1] = target: Glutamate receptor ionotropic, kainate (Rattus norvegicus) (UniProt P22756+Q01812+P42260+P42264+Q63273); assay: Inhibition of Glutamate, Kainate at 10 µM in the Eurofins-Panlabs radioligand binding assay (Eurofins_assay_232700); conditions: Compound concentration 10.0 uM
[2] = target: Neuropeptide Y receptor type 2 (Homo sapiens) (UniProt P49146); assay: Inhibition of Neuropeptide Y Y2 at 10 µM in the Eurofins-Panlabs radioligand binding assay (Eurofins_assay_257110); conditions: Compound concentration 10.0 uM
[3] = target: T1, G protein-coupled receptor kinase 3 (Homo sapiens) (UniProt P35626); assay: ADRBK2 (GRK3) Kinase screen; conditions: Compound concentration 1.0 uM
T1 sequence (whole entry): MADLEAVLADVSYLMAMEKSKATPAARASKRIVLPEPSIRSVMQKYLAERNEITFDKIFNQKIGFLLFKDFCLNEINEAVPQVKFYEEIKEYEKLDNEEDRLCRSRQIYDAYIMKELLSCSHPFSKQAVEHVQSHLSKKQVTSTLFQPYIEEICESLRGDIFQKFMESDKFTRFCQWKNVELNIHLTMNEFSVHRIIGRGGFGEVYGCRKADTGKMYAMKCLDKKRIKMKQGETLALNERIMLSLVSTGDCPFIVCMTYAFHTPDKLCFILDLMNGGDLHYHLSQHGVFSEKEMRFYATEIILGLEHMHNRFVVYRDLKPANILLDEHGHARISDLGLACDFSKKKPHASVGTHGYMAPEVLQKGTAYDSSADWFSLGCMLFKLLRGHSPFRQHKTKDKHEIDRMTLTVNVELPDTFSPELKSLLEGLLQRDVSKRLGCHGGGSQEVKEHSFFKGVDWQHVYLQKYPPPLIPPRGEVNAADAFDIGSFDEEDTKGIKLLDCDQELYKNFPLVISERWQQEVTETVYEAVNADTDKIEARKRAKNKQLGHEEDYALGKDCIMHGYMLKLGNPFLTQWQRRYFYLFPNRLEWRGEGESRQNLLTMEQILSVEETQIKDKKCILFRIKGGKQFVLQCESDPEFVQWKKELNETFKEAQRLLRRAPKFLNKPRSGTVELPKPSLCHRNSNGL

[4] = target: RAC-alpha serine/threonine-protein kinase (Homo sapiens) (UniProt P31749); assay: AKT1 (PKB alpha) Kinase screen; conditions: Compound concentration 1.0 uM
[5] = target: Tyrosine-protein kinase receptor UFO (Homo sapiens) (UniProt P30530); assay: AXL Kinase screen; conditions: Compound concentration 1.0 uM
[6] = target: Calcium/calmodulin-dependent protein kinase type 1 (Homo sapiens) (UniProt Q14012); assay: CAMK1 (CaMK1) Kinase screen; conditions: Compound concentration 1.0 uM
[7] = target: Dual specificity protein kinase CLK2 (Homo sapiens) (UniProt P49760); assay: CLK2 Kinase screen; conditions: Compound concentration 1.0 uM
[8] = target: Fibroblast growth factor receptor 1 (Homo sapiens) (UniProt P11362); assay: FGFR1 Kinase screen; conditions: Compound concentration 1.0 uM
[9] = target: Maternal embryonic leucine zipper kinase (Homo sapiens) (UniProt Q14680); assay: MELK Kinase screen; conditions: Compound concentration 1.0 uM
[10] = target: Macrophage-stimulating protein receptor (Homo sapiens) (UniProt Q04912); assay: MST1R (RON) Kinase screen; conditions: Compound concentration 1.0 uM
[11] = target: Serine/threonine-protein kinase PAK 4 (Homo sapiens) (UniProt O96013); assay: PAK4 Kinase screen; conditions: Compound concentration 1.0 uM
[12] = target: Ribosomal protein S6 kinase alpha-4 (Homo sapiens) (UniProt O75676); assay: RPS6KA4 (MSK2) Kinase screen; conditions: Compound concentration 1.0 uM
[13] = target: T2, Serine/threonine-protein kinase Sgk3 (Homo sapiens) (UniProt Q96BR1); assay: SGKL (SGK3) Kinase screen; conditions: Compound concentration 1.0 uM
T2 sequence (whole entry): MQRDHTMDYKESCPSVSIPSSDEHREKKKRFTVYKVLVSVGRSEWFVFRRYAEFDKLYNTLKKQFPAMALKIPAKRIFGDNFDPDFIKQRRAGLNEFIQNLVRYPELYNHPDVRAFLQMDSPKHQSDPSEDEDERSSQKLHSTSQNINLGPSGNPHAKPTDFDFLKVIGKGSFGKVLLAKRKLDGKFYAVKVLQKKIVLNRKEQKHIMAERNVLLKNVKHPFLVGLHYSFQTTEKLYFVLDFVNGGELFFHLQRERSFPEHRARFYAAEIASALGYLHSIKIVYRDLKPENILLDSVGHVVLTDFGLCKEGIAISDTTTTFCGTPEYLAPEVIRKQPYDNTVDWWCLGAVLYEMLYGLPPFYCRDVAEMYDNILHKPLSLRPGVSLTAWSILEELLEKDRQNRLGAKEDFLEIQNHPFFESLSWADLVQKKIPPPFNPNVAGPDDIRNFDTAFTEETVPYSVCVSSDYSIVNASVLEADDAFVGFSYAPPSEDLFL

[14] = target: Sphingosine kinase 2 (Homo sapiens) (UniProt Q9NRA0); assay: SPHK2 Kinase screen; conditions: Compound concentration 1.0 uM
[15] = target: SRSF protein kinase 2 (Homo sapiens) (UniProt P78362); assay: SRPK2 Kinase screen; conditions: Compound concentration 1.0 uM
[16] = target: T3, Tyrosine-protein kinase Tec (Homo sapiens) (UniProt P42680); assay: TEC Kinase screen; conditions: Compound concentration 1.0 uM
T3 sequence (whole entry): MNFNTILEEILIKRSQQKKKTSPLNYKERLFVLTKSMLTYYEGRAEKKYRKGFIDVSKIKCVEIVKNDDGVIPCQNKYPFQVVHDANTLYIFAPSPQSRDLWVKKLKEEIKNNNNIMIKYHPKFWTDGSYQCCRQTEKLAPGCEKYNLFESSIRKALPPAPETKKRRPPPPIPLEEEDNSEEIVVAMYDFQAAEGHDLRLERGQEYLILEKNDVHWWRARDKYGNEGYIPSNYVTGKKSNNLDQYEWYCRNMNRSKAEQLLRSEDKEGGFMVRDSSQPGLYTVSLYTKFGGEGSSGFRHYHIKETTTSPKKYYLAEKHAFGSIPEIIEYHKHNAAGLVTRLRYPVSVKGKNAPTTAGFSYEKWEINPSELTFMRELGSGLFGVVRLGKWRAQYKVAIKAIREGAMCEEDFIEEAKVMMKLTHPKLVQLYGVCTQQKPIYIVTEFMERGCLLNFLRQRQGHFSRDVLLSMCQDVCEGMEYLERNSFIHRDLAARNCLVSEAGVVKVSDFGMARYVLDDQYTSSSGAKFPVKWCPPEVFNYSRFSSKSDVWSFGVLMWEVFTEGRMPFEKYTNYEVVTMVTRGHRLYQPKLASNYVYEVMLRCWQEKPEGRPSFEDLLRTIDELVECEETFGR

[17] = target: Prostaglandin E2 receptor EP1 subtype (Homo sapiens) (UniProt P34995); assay: Prostanoid EP1 Eurofins-Panlabs radioligand binding assay; parameters: ligand concentration 1 nM; conditions: Compound concentration 10.0 uM
[18] = target: Endothelin receptor type B (Homo sapiens) (UniProt P24530); conditions: Compound concentration 10.0 uM
[19] = target: Histamine H1 receptor (Homo sapiens) (UniProt P35367); conditions: Compound concentration 10.0 uM
[20] = target: Type-1 angiotensin II receptor (Homo sapiens) (UniProt P30556); conditions: Compound concentration 10.0 uM
[21] = target: 3-phosphoinositide-dependent protein kinase 1 (PDPK1) (Homo sapiens) (UniProt O15530); assay: PDK1 Direct Kinase screen; conditions: Compound concentration 1.0 uM

Measured: inhibition

Endothelin receptor type B (Homo sapiens), sequence (P24530 whole entry): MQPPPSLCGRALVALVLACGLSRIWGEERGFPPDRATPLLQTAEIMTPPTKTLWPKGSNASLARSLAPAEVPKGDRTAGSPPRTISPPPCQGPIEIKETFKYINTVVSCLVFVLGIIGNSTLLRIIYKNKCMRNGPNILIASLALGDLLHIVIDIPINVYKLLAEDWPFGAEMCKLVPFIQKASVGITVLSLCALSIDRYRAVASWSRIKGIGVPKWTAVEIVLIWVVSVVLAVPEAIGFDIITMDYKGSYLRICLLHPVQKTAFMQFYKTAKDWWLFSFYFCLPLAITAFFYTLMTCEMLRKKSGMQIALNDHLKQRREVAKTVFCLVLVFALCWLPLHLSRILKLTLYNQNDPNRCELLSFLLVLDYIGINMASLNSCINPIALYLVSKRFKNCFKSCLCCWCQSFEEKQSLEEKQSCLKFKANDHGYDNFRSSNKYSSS
Tyrosine-protein kinase receptor UFO (Homo sapiens), sequence (P30530 whole entry): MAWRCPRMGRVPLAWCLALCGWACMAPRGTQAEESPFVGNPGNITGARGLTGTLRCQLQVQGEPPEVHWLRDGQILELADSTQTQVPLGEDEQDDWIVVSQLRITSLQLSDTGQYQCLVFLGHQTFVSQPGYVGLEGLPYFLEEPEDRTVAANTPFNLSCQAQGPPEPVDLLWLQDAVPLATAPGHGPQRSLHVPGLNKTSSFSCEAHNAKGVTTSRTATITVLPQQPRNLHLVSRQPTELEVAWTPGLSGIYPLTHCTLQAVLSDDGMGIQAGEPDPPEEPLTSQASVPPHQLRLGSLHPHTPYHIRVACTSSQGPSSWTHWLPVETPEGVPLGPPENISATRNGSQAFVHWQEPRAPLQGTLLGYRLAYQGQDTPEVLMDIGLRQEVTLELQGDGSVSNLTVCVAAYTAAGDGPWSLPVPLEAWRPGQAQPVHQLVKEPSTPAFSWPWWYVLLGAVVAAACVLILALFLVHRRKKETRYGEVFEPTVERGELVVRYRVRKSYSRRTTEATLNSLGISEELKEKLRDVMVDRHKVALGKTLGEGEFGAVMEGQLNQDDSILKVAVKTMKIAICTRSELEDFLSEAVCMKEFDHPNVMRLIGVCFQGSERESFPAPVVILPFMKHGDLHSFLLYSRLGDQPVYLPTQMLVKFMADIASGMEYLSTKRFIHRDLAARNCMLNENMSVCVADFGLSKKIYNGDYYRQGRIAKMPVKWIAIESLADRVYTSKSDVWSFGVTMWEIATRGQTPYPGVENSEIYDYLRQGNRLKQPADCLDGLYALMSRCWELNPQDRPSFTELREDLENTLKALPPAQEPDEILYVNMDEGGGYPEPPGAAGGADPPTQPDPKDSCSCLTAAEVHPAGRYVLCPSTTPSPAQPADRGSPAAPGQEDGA
Type-1 angiotensin II receptor (Homo sapiens), sequence (P30556 whole entry): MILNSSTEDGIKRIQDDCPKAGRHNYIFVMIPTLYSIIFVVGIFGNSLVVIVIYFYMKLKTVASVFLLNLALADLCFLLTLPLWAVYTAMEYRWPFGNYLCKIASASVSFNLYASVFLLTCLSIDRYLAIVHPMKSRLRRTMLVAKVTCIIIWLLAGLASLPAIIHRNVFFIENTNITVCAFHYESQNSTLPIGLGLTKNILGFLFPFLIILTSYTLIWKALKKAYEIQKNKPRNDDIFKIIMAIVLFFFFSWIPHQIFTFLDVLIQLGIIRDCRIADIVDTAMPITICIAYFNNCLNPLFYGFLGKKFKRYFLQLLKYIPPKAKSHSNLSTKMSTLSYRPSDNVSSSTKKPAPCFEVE
Fibroblast growth factor receptor 1 (Homo sapiens), sequence (P11362 22-822 limits assumed): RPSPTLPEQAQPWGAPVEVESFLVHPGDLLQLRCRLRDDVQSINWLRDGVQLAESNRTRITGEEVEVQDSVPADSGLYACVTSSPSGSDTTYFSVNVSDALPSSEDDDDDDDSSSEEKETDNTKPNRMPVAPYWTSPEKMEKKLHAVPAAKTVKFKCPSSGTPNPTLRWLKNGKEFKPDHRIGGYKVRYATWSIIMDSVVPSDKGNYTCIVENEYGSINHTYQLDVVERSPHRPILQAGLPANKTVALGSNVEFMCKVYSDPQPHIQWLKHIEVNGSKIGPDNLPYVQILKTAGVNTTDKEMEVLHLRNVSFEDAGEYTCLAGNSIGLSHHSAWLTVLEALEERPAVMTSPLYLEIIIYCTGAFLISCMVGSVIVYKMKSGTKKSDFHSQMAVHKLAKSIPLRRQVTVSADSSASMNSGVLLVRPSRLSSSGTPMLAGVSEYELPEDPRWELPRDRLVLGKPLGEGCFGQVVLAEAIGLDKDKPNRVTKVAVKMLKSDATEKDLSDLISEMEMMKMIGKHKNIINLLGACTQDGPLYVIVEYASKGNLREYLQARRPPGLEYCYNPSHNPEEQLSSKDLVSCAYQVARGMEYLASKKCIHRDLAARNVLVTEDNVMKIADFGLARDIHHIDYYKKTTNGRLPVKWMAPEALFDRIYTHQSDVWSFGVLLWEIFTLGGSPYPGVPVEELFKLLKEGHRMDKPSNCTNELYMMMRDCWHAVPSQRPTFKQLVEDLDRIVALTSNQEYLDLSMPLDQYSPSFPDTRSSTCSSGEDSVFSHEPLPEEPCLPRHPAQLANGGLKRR
Serine/threonine-protein kinase PAK 4 (Homo sapiens), sequence (O96013 whole entry, looked up): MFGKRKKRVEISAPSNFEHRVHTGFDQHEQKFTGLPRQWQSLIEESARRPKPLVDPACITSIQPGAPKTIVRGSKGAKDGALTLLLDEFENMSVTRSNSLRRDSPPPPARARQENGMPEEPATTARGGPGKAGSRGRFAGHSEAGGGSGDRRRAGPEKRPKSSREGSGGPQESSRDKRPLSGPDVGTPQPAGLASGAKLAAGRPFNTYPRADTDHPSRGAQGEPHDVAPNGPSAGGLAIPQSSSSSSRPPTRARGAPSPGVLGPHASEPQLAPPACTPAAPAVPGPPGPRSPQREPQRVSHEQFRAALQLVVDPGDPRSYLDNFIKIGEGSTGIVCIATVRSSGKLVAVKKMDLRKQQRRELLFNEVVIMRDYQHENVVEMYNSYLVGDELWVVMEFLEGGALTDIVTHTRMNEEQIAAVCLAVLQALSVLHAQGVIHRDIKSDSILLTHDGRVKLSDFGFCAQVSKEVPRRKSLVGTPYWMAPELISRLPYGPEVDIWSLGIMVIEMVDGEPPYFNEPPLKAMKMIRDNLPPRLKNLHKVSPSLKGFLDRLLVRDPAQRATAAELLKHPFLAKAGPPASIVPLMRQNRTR
3-phosphoinositide-dependent protein kinase 1 (PDPK1) (Homo sapiens), sequence (O15530 whole entry, looked up): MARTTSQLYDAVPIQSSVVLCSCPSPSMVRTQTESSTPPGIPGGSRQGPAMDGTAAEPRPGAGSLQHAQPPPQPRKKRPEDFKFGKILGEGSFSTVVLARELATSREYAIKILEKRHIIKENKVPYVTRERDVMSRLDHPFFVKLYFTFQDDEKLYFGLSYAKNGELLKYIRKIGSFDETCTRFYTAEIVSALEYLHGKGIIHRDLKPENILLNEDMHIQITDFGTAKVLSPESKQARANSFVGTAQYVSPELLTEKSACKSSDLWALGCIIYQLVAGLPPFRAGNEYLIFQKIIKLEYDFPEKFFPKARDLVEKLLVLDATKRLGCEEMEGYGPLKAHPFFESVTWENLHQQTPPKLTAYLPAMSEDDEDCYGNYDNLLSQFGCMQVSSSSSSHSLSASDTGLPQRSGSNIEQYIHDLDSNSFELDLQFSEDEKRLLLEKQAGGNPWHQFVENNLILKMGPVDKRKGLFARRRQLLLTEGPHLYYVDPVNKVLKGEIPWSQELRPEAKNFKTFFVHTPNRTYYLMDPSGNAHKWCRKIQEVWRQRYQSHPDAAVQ
Macrophage-stimulating protein receptor (Homo sapiens), sequence (Q04912 25-304 limits assumed): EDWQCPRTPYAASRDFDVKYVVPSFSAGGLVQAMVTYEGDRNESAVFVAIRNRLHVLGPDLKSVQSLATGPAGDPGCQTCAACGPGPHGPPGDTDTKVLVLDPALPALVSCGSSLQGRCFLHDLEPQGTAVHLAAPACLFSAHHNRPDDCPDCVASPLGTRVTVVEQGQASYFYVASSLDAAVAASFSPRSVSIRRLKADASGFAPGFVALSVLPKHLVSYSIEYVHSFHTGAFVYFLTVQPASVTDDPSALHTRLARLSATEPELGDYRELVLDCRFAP
Macrophage-stimulating protein receptor (Homo sapiens), sequence (Q04912 310-1400 limits assumed): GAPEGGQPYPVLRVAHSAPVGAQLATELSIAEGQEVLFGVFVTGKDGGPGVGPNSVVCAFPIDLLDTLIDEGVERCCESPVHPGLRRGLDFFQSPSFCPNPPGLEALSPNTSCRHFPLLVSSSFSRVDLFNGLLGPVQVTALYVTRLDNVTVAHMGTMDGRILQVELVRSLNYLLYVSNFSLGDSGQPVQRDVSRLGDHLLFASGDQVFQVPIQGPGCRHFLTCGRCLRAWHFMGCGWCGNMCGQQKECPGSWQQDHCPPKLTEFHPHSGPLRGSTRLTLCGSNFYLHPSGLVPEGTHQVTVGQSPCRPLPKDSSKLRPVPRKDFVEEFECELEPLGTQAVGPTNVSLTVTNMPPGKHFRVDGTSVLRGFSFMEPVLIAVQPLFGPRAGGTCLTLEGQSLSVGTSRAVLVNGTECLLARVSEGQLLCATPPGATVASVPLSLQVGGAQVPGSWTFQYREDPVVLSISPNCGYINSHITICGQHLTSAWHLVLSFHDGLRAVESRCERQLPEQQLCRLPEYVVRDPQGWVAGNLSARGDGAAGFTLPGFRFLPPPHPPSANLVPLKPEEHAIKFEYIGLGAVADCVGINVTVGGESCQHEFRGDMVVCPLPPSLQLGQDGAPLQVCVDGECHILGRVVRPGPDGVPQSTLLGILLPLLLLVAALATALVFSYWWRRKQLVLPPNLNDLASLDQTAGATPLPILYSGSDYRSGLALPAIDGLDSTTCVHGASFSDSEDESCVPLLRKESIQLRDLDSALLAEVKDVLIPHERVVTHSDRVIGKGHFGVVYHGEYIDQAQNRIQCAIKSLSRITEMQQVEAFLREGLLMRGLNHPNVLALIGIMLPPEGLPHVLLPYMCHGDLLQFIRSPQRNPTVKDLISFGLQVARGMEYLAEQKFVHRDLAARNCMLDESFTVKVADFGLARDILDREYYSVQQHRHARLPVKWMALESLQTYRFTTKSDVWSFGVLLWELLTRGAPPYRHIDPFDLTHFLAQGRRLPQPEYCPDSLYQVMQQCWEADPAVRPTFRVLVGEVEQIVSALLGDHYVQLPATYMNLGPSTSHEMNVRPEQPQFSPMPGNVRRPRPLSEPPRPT

C[C@@H]1CN(c2cc(-c3n[nH]c4ccc(OC5(C)CC5)cc34)ncn2)C[C@H](C)O1 [MLi-2]
inactive: [1] 12% | [2] 1% | [3] -0.166% | [4] 6.75% | [5] 4.79% | [6] -4.05% | [7] 55% | [8] 3.88% | [9] 5.44% | [10] 1.51% | [11] -7.34% | [12] 7.68% | [13] 0.213% | [14] -0.739% | [15] 0.838% | [16] -2.1% | [17] 16% | [18] -1% | [19] -4% | [20] 8% | [21] -2.36%
